Results from patent publication US7201899B2, “Materials and methods for management of hyperacute rejection in human xenotransplantation” (BresaGen Limited, priority 1994, dated 2007).

System: porcine cells (PAE's and PK1's)
Experiment: Complement-mediated lysis of porcine cells (51CR release and LDH release assays)
Type: cell-based
Settings: effective sugar concentrations covered about 10 mM
Protocol: The ability of human serum to cause the lysis of porcine cells was examined using both pig epithelial (PK1) and aortic endothelial (PAE's) cells, the isolation and culture of which is described in Example 2. Cell lysis was determined using either the ^51Chromium release assay as described by Cerottini and Brunner, Nature New Biol. 237:272, 1972 or the Cytotox LDH release assay according to the manufacturer's instructions (Promega, USA).
A. ^51CR Release Assay • 1. Preparation of Cells: • a) Trypsinize a confluent flask of cells. On average, approximately 3×10^6 PAE's and approximately 3×10^7 PK1 cells are obtained per 10 ml flask. About 1×10^5 cells are required for each well in the 5CR Release Assay. • b) Wash cells […] in 10 ml RPMI (no FCS); spin 1200 rpm for 5 min. • c) Resuspend cells in 100 μl RPMI (with 10% heat-inactivated FCS; see below). • 2. […]

## O=C[C@H](O)[C@@H](O)[C@H](O)[C@H](O)CO[C@H]1O[C@H](CO)[C@H](O)[C@H](O)[C@H]1O [Melibiose, 6-O-α-D-galactopyranosyl-D-glucose]
  protection of porcine cells from complement-induced lysis: protects the porcine cells from lysis
